According to US10669284B2, “Fused thiazolopyrimidine derivatives as MNKS inhibitors” (LIFEARC, priority 2015, dated 2020):

Columns and labels:
SGK1 = target: T1, SGK1 (Homo sapiens, UniProt O00141); experiment: Kinase selectivity screen SGK1; conditions: read-out: % inhibition of SGK1
T1 sequence (O00141 1-431): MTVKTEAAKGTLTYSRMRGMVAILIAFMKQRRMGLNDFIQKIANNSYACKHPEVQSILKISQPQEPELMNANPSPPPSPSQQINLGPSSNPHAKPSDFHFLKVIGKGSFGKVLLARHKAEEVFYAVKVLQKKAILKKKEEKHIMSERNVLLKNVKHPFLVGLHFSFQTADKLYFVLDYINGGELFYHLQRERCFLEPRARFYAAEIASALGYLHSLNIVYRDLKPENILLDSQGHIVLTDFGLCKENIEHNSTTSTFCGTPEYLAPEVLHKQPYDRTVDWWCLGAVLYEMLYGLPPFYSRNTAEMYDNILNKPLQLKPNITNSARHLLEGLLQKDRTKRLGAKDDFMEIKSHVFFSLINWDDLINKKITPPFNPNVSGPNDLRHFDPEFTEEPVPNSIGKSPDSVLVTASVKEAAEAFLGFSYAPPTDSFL

AURKC = target: T2, AURKC (Homo sapiens, UniProt Q9UQB9); experiment: Kinase selectivity screen AURKC; conditions: read-out: % inhibition of AURKC
T2 sequence (Q9UQB9 1-309): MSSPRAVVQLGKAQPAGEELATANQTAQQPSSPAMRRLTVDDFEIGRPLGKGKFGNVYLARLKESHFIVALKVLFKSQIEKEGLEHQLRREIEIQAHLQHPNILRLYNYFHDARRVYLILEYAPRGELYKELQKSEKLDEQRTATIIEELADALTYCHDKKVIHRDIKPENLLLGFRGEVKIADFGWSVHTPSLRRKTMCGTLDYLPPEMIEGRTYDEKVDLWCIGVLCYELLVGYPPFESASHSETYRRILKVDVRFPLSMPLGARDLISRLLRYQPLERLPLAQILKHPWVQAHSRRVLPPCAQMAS

RAF1 = RAF1 (Homo sapiens, UniProt P04049); experiment: Kinase selectivity screen RAF1; conditions: read-out: % inhibition of RAF1
AKT1 = AKT1 (Homo sapiens, UniProt P31749); experiment: Kinase selectivity screen AKT1; conditions: read-out: % inhibition of AKT1
FGFR1 = FGFR1 (Homo sapiens, UniProt P11362); experiment: Kinase selectivity screen FGFR1; conditions: read-out: % inhibition of FGFR1
FGFR3 = FGFR3 (Homo sapiens, UniProt P22607); experiment: Kinase selectivity screen FGFR3; conditions: read-out: % inhibition of FGFR3
MKNK2 = MKNK2 (Homo sapiens, UniProt Q9HBH9); experiment: Kinase selectivity screen MKNK2; format: biochemical; conditions: 1 μM compound
ULK2 = target: T3, ULK2 (Homo sapiens, UniProt Q8IYT8); experiment: Kinase selectivity screen ULK2; conditions: read-out: % inhibition of ULK2
T3 sequence (Q8IYT8 1-1036): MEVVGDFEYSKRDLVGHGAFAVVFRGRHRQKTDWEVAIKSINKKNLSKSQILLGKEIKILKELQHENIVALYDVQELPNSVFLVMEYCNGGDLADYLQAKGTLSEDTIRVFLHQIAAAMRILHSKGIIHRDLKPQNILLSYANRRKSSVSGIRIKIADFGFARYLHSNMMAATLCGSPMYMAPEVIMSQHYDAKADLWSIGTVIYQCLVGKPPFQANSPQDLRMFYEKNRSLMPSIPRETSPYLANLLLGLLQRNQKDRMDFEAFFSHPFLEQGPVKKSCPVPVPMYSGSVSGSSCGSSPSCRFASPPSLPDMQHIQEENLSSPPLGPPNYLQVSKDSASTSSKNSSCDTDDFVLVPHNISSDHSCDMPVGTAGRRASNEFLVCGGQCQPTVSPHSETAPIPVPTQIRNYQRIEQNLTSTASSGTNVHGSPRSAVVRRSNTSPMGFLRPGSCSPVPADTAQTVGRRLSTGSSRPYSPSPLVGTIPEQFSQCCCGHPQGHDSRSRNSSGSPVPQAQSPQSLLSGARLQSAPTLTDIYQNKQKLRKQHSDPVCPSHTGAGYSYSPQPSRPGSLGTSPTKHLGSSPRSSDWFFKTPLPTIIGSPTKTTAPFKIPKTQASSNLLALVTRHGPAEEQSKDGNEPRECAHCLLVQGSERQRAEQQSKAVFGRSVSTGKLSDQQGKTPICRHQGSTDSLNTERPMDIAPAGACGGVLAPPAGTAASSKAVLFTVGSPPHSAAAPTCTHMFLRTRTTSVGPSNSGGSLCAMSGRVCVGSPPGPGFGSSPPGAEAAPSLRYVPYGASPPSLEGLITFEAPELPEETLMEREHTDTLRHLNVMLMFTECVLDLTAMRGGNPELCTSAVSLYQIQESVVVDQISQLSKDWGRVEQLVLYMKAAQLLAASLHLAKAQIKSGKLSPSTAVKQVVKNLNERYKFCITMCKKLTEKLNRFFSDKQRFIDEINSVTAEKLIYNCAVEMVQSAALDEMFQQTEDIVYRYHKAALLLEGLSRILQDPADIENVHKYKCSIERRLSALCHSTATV

KIT = KIT (Homo sapiens, UniProt P10721); experiment: Kinase selectivity screen KIT; conditions: read-out: % inhibition of KIT
FER = FER (Homo sapiens, UniProt P16591); experiment: Kinase selectivity screen FER; conditions: read-out: % inhibition of FER
PAK4 = PAK4 (Homo sapiens, UniProt O96013); experiment: Kinase selectivity screen PAK4; conditions: read-out: % inhibition of PAK4
PAK4, sequence (O96013 whole entry, species assumed): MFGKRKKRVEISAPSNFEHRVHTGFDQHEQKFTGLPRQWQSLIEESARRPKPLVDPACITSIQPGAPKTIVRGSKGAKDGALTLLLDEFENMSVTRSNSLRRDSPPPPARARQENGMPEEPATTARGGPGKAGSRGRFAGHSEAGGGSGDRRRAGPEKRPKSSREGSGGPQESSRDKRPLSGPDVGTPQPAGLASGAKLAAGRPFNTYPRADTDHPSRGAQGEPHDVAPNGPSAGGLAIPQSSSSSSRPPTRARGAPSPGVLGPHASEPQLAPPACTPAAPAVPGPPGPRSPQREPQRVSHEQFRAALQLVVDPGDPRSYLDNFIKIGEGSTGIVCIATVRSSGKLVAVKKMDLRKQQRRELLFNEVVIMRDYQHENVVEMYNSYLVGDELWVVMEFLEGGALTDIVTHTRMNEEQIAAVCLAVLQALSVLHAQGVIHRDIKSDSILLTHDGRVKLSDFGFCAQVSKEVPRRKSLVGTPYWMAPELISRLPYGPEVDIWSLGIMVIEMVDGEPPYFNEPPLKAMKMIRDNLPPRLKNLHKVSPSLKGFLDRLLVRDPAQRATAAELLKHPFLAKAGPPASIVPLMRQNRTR

FGFR1, sequence (P11362 22-822, species assumed): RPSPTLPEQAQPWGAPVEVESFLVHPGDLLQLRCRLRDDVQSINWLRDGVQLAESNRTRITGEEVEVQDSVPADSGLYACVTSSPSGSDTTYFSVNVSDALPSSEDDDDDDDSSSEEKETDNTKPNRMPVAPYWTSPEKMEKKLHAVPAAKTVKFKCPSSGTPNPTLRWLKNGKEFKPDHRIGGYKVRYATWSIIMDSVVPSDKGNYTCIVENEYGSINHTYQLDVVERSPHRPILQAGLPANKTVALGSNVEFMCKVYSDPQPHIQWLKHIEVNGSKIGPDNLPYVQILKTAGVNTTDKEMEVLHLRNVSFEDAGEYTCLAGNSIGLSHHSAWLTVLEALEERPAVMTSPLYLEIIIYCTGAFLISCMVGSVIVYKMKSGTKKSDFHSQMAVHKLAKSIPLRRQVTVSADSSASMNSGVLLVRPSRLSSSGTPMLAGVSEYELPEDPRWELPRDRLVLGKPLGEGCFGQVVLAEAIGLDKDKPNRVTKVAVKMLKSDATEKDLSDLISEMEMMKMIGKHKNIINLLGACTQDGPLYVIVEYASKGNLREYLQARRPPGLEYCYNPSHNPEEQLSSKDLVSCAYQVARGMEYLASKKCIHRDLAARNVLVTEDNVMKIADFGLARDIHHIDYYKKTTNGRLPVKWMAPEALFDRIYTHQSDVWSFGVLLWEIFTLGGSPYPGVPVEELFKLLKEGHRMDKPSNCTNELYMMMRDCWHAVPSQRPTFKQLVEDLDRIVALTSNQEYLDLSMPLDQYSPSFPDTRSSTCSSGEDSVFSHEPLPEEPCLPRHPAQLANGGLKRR
KIT, sequence (P10721 26-976, species assumed): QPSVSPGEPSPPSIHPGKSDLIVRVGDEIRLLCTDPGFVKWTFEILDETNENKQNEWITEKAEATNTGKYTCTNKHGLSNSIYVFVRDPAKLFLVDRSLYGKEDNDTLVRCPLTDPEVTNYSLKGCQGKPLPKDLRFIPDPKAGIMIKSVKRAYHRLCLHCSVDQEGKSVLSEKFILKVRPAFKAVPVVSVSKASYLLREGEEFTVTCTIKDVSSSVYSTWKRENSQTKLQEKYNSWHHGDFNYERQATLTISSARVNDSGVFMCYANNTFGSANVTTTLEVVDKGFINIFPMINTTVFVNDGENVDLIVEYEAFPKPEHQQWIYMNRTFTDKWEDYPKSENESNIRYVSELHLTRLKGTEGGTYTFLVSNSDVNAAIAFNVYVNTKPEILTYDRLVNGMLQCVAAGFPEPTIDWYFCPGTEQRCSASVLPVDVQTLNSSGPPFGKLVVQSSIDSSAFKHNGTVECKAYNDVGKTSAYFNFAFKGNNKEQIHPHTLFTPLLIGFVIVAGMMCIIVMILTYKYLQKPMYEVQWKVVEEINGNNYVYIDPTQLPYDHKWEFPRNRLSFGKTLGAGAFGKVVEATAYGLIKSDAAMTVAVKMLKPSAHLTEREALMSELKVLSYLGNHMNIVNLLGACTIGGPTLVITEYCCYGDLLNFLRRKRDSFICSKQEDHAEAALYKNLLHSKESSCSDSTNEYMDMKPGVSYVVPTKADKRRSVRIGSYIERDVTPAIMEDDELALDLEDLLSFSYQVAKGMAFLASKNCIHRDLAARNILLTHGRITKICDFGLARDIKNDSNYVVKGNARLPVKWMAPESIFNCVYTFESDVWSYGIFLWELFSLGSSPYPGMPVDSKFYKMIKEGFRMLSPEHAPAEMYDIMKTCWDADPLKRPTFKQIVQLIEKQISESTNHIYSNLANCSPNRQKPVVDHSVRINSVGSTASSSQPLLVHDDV
RAF1, sequence (P04049 whole entry, species assumed): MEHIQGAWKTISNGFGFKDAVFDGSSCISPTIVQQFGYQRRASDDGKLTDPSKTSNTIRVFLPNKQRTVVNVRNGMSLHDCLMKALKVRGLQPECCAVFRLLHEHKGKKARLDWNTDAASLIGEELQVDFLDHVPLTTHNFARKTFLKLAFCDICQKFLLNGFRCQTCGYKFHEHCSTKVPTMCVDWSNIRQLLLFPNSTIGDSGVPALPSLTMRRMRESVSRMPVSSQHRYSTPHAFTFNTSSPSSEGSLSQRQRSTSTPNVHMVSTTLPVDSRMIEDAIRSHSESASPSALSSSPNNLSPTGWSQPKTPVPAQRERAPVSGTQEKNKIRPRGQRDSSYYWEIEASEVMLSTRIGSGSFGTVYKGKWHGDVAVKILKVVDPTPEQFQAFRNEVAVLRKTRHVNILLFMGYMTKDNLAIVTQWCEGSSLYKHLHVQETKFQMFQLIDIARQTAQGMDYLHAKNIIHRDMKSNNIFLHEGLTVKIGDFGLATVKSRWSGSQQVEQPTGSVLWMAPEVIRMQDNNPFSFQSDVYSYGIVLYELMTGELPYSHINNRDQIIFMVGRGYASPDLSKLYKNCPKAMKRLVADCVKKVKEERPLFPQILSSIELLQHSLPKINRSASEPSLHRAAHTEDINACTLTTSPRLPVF
AKT1, sequence (P31749 whole entry, species assumed): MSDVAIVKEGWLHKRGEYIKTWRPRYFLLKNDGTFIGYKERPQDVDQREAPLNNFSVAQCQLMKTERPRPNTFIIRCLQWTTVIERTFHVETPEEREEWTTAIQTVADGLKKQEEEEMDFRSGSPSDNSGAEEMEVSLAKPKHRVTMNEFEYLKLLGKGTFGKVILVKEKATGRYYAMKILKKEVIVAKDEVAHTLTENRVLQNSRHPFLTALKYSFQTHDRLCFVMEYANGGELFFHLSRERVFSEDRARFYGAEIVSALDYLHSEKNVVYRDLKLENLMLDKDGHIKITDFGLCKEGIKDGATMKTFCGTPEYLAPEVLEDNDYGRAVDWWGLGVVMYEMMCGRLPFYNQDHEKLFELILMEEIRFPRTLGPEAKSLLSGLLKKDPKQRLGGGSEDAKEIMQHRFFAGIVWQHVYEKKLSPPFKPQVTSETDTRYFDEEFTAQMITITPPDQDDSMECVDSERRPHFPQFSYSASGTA
FER, sequence (P16591 whole entry, species assumed): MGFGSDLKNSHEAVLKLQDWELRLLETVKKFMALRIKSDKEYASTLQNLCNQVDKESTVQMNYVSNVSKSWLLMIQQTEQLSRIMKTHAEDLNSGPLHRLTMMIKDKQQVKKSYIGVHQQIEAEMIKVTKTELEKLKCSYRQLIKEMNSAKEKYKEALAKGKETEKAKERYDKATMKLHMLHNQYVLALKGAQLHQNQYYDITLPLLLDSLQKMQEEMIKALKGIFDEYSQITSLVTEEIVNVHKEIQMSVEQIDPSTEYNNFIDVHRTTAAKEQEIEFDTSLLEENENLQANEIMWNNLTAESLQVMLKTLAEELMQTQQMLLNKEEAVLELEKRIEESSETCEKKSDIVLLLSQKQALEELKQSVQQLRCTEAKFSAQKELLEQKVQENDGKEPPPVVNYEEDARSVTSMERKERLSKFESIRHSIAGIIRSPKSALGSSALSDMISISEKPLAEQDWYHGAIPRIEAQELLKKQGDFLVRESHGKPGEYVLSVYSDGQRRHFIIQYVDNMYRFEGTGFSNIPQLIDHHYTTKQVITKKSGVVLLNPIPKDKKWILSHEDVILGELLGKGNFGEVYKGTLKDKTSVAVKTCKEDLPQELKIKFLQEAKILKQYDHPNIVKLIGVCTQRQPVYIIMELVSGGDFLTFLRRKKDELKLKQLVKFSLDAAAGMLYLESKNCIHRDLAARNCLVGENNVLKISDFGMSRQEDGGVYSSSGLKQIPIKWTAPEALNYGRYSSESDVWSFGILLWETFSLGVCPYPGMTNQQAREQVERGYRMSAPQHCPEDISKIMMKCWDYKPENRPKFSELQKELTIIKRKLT
FGFR3, sequence (P22607 23-806, species assumed): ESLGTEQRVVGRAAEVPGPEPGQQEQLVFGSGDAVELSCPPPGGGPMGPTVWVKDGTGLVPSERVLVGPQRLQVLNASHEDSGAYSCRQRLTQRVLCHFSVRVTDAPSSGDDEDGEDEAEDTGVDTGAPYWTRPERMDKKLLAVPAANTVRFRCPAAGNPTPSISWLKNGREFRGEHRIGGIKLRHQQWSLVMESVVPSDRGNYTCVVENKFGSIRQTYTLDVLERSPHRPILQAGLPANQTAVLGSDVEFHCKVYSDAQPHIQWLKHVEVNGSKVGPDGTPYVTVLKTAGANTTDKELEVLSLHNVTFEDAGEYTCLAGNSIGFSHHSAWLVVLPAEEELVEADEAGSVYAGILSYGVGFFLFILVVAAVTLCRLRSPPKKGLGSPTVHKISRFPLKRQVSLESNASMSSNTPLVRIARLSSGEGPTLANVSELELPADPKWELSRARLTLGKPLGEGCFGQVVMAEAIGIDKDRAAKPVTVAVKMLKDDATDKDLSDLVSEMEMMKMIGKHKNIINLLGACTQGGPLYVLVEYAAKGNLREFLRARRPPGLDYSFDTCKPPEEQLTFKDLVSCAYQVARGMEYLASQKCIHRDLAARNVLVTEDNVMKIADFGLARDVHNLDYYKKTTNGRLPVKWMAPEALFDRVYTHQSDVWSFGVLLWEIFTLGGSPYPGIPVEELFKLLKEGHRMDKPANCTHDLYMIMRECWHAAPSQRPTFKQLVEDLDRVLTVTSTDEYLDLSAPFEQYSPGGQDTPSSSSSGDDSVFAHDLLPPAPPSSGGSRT

Compound: CC(C)Oc1cc(F)ccc1Nc1ncnc2sc(C(=O)NCC3CCNCC3)nc12 [Example 10, 7-(4-fluoro-2-isopropoxy-anilino)-N-(4-piperidylmethyl)thiazolo[5,4-d]pyrimidine-2-carboxamide]
- inhibition at 1 µM (SGK1): 14%
- inhibition at 1 µM (AURKC): 14%
- inhibition at 1 µM (RAF1): 0%
- inhibition at 1 µM (AKT1): 0%
- inhibition at 1 µM (FGFR1): 1%
- inhibition at 1 µM (FGFR3): 0%
- inhibition at 1 µM (MKNK2): 81%
- inhibition at 1 µM (ULK2): 0%
- inhibition at 1 µM (KIT): 0%
- inhibition at 1 µM (FER): 4%
- inhibition at 1 µM (PAK4): 15%

Compound: O=C(NCC1CCNCC1)c1nc2c(N3CCc4cc(F)ccc43)ncnc2s1 [Example 58, 7-(5-fluoroindolin-1-yl)-N-(4-piperidylmethyl)thiazolo[5,4-d]pyrimidine-2-carboxamide]
- inhibition at 1 µM (SGK1): 24%
- inhibition at 1 µM (AURKC): 5%
- inhibition at 1 µM (RAF1): 1%
- inhibition at 1 µM (AKT1): 0%
- inhibition at 1 µM (FGFR1): 0%
- inhibition at 1 µM (FGFR3): 0%
- inhibition at 1 µM (MKNK2): 93%
- inhibition at 1 µM (ULK2): 21%
- inhibition at 1 µM (KIT): 7%
- inhibition at 1 µM (FER): 0%
- inhibition at 1 µM (PAK4): 0%

Compound: CN(C)CCCNC(=O)c1nc2c(N3CCc4cc(F)ccc43)ncnc2s1 [Example 64, N-[3-(dimethylamino)propyl]-7-(5-fluoroindolin-1-yl)thiazolo[5,4-d]pyrimidine-2-carboxamide]
- inhibition at 1 µM (SGK1): 41%
- inhibition at 1 µM (AURKC): 15%
- inhibition at 1 µM (RAF1): 0%
- inhibition at 1 µM (AKT1): 0%
- inhibition at 1 µM (FGFR1): 2%
- inhibition at 1 µM (FGFR3): 3%
- inhibition at 1 µM (MKNK2): 96%
- inhibition at 1 µM (ULK2): 81%
- inhibition at 1 µM (KIT): 0%
- inhibition at 1 µM (FER): 0%
- inhibition at 1 µM (PAK4): 4%
